Laboratory results from patent US11485751B2, “Apramycin derivatives” (WAYNE STATE UNIVERSITY, priority 2017, dated 2022).
pIC50: −log10 of the molar value. ≈ marks a conversion by molar mass, not a printed value.

Columns and labels:
[1] = system: AG220, Pseudomonas aeruginosa ATCC27853; test: MIC reference strain AG220; assay type: cell-based; conditions: Pseudomonas aeruginosa, ATCC27853, read-out: MIC AG220 P. aeruginosa
From the text: (§1) Minimal inhibitory concentrations (MIC) have been determined by broth microdilution assays (CLSI. Methods for Dilution Antimicrobial Susceptibility Tests for Bacteria That Grow Aerobically; Approved Standard—Tenth Edition. CLSI document M07-A10. Wayne, Pa.: Clinical and Laboratory Standards Institute; 2015.).
(§2) Table 4 and 5 show the antibacterial activity of the compounds of the invention against bacterial reference strains (table 4) and against representative clinical isolates (table 5).
(§3) Legend to Tables: GEN, gentamicin; AMK, amikacin; PLZ, plazomicin; APR, apramycin; AG212, Escherichia coli ATCC25922; AG215, Klebsiella pneumonia; AG220, Pseudomonas aeruginosa ATCC27853; AG225, Acinetobacter baumannii pittii; AG290, Enterobacter cloacae; […], Mycobacterium smegmatis. MICs for AG192 have been determined in the presence of 0.5 μg/mL of ampicillin in the medium to mimic the synergistic effect of aminoglycoside and β-lactam antibiotics combination therapy in the treatment of Enterococcus infections in humans.

[2] = system: AG173 E. coli AAC(3)-IV; test: Antibacterial activity, clinical isolate AG173; assay type: cell-based
From the text: as §1, §2

[3] = system: Enterob. AG302 AAC(3)-II AAC(6′)-I rmtC; test: Activity against G1405-methylated 16S-rRNA, clinical isolate AG302; assay type: cell-based
From the text: as §1

[4] = system: AG225, Acinetobacter baumannii pittii; test: MIC reference strain AG225; assay type: cell-based; conditions: Acinetobacter baumannii, read-out: MIC AG225 A. baumannii
From the text: as §1, §2, §3

[5] = system: WT clinical isolates; test: MIC broth microdilution, WT; assay type: cell-based; conditions: read-out: MIC WT, clinical isolates, IMM Univ. Zurich; wild type
From the text: as §1
(§4) Minimal inhibitory concentrations (MICs, […]) against clinical isolates from Institute of Medical Microbiology, Univ. Zurich, and the IC50 values for bacterial, human mitochondrial and human cytosolic ribosomes are indicated.
(§5) Minimal inhibitory concentrations (μg/ml) against clinical isolates from Institute of Medical Microbiology, Univ. Zurich, and the IC50 values for bacterial, human mitochondrial and human cytosolic ribosomes are indicated.
(§6) The Minimal inhibitory concentrations (MICs, μg/ml) against clinical isolates from Institute of Medical Microbiology, Univ Zurich, and the IC50 values for bacterial, human mitochondrial and human cytosolic ribosomes are indicated.

[6] = system: AG038 MRSA; test: Antibacterial activity, clinical isolate AG038; assay type: cell-based
From the text: as §1, §2

[7] = system: bacterial ribosomes; test: in-vitro translation assay, bacterial ribosomes; assay type: biochemical
From the text: (§7) IC50 values for bacterial, human chimeric, and rabbit reticulocyte ribosomes have been determined by in-vitro translation assays as described previously (Proc. Nat. Ac. Sci USA 2012, 109(27):10984-10989).
as §4

[8] = system: clinical isolates carrying AAC(3)-IV; test: MIC broth microdilution, AAC(3)-IV; assay type: cell-based; conditions: read-out: MIC AAC(3)-IV
From the text: as §1, §4, §5, §6

[9] = system: AG215, Klebsiella pneumonia; test: MIC reference strain AG215; assay type: cell-based; conditions: Klebsiella pneumoniae, read-out: MIC AG215 K. pneumonia
From the text: as §1, §2, §3

[10] = system: AG001 E. coli WT; test: Antibacterial activity, clinical isolate AG001; assay type: cell-based
From the text: as §1, §2

[11] = system: Engineered E. coli pH424 armA; test: Activity against G1405-methylated 16S-rRNA, E. coli pH424 armA; assay type: cell-based
From the text: as §1

[12] = system: isolates carrying apmA; test: MIC broth microdilution, apmA; assay type: cell-based; conditions: apmA resistance gene
From the text: as §1, with “2015.). […]” for “2015.).”
as §5, §6

[13] = system: K. pneum. AG269 AAC(3)-II AAC(6′)-I rmtB; test: Activity against G1405-methylated 16S-rRNA, clinical isolate AG269; assay type: cell-based
From the text: as §1

[14] = system: AG212, Escherichia coli ATCC25922; test: MIC reference strain AG212; assay type: cell-based; conditions: Escherichia coli, ATCC25922, read-out: MIC AG212 E. coli
From the text: as §1, §2, §3

[15] = system: A baum. AG227 APH(3′)-I armA; test: Activity against G1405-methylated 16S-rRNA, clinical isolate AG227; assay type: cell-based
From the text: as §1

[16] = system: SZ380, Mycobacterium smegmatis; test: MIC reference strain SZ380; assay type: cell-based; conditions: Mycolicibacterium smegmatis, read-out: MIC SZ380 M. smegmatis
From the text: as §1, §2, §3

[17] = system: Engineered E. coli pH430 WT; test: Activity, engineered E. coli pH430 WT; assay type: cell-based; conditions: wild type
From the text: as §1

[18] = system: E. coli AG153 AAC(3)-II APH(3′)-II rmtB; test: Activity against G1405-methylated 16S-rRNA, clinical isolate AG153; assay type: cell-based
From the text: as §1

[19] = system: human mitochondrial ribosomes; test: in-vitro translation assay, human mitochondrial (human chimeric) ribosomes; assay type: biochemical
From the text: as §7, §4

[20] = system: human cytosolic ribosomes; test: in-vitro translation assay, human cytosolic ribosomes; assay type: biochemical
From the text: as §7, §4

[21] = system: AG290, Enterobacter cloacae; test: MIC reference strain AG290; assay type: cell-based; conditions: Enterobacter cloacae, read-out: MIC AG290 E. cloacae
From the text: as §1, §2, §3

[22] = system: ATCC19977 M. abcessus; test: MIC reference strain ATCC19977; assay type: cell-based; conditions: read-out: MIC ATCC19977 M. abcessus
From the text: as §1, §2

[23] = system: AG031 P. aer. APH(3′)-II; test: Antibacterial activity, clinical isolate AG031; assay type: cell-based; set-up: unit not given here
From the text: as §1, §2

[24] = system: AG163 E. coli APH(3′)-I; test: Antibacterial activity, clinical isolate AG163; assay type: cell-based
From the text: as §1, §2

Row | SMILES | MIC [1] [µg/mL] | Antibacterial activity AG173 E. coli AAC(3)-IV [2] | Activity Enterob. AG302 AAC(3)-II AAC(6′)-I rmtC [3] | MIC [4] [µg/mL] | Antibacterial activity AG038 MRSA [6] | pIC50 [7] | MIC [8] [µg/mL] | MIC [9] [µg/mL] | Antibacterial activity AG001 E. coli WT [10] | Activity E. coli pH424 armA [11] | MIC [12] [µg/mL] | Activity K. pneum. AG269 AAC(3)-II AAC(6′)-I rmtB [13] | MIC [14] [µg/mL] | Activity A baum. AG227 APH(3′)-I armA [15] | MIC [16] [µg/mL] | Activity E. coli pH430 WT [17] | Activity E. coli AG153 AAC(3)-II APH(3′)-II rmtB [18] | pIC50 [19] | pIC50 [20] | MIC [21] [µg/mL] | other results
1 | CN[C@H]1C(O)C2O[C@H](O[C@@H]3C(N)C[C@@H](NC(=O)C(O)CCN)[C@@H](O)[C@H]3O)C(N)C[C@@H]2O[C@@H]1O[C@H]1OC(CO)[C@@H](N)[C@H](O)C1O (stereo partly drawn) [DC191] | 4 | 4-8 | 2-4 | 8 | 4 | 6.70 | 4 to 8 (≈ 6.24 to 12.5 µM) | 1 to 2 | 8 | 2 | 8 (≈ 12.5 µM) | 2 | 2 | 4 | 0.5 | 2-4 | 4 | 4.01 | 4.06 | 2 | MIC [5]: 2 to 4 µg/mL (≈ 3.12 to 6.24 µM); MIC [22]: 2 µg/mL (≈ 3.12 µM)
2 | CNC1C(O)C2O[C@H](O[C@@H]3C(N)C[C@@H](N)[C@@H](O)[C@H]3OCCCO)C(N)C[C@@H]2O[C@@H]1O[C@H]1OC(CO)[C@@H](N)[C@H](O)C1O (stereo partly drawn) [DC207] | 64 | >128 | 8-16 | 32 | 32 | 6.22 | > 128 | 8 | 16 | 4 | > 128 | 8 | 16 | 16-32 | 1 | 8 | 8 | < 3.00 | < 3.00 | 16 | Antibacterial activity AG031 P. aer. APH(3′)-II [23]: 128; MIC [22]: 8 µg/mL (≈ 13.4 µM)
3 | CNC1C(O)C2O[C@H](O[C@@H]3C(N)C[C@@H](N)[C@@H](O)[C@H]3OCC(O)CO)C(N)C[C@@H]2O[C@@H]1O[C@H]1OC(CO)[C@@H](N)[C@H](O)C1O (stereo partly drawn) [DC208] | 16 to 32 | >64 | 4 | 16 | 8-16 | 6.68 | 64 (≈ 104 µM) | 4 | 8 | 2 | > 128 | 4 | 8 | 8 | 0.5 | 4-8 | 8 | 3.36 | < 3.00 | 4 | MIC [5]: 4 to 8 µg/mL (≈ 6.52 to 13 µM); Antibacterial activity AG031 P. aer. APH(3′)-II [23]: 32; MIC [22]: 2 µg/mL (≈ 3.26 µM)
4 | CN[C@H]1C(O)C2O[C@H](O[C@@H]3C(N)C[C@@H](N)[C@@H](O)[C@H]3OCC(O)CN)C(N)C[C@@H]2O[C@@H]1O[C@H]1OC(CO)[C@@H](N)[C@H](O)C1O (stereo partly drawn) [DC209] | 2 to 4 | 32 | 2 | 4 | 1-2 | 7.40 | 8 (≈ 13.1 µM) | 1 | 2 | 2 | 64 to 128 (≈ 104 to 209 µM) | 1 | 2 to 4 | 2-4 | 0.125 | 2-4 | 2-4 | 3.84 | 3.98 | 1 | MIC [5]: 2 to 4 µg/mL (≈ 3.26 to 6.53 µM); Antibacterial activity AG163 E. coli APH(3′)-I [24]: 4; Antibacterial activity AG031 P. aer. APH(3′)-II [23]: 4; MIC [22]: 0.5 to 1 µg/mL (≈ 0.816 to 1.63 µM)
5 | CN[C@H]1C(O)C2O[C@H](O[C@@H]3C(N)C[C@@H](N)[C@@H](O)[C@H]3OCCCN)C(N)C[C@@H]2O[C@@H]1O[C@H]1OC(CO)[C@@H](N)[C@H](O)C1O (stereo partly drawn) [DC213] | 8 | 128 | 4-8 | 8 | 4 | 6.68 | 64 (≈ 107 µM) | 2 | 16 | 4 | 64 to 128 (≈ 107 to 215 µM) | 4-8 | 4 to 8 | 4-8 | 0.25 | 4 | 32 | 3.49 | 3.68 | 4 to 8 | MIC [5]: 4 µg/mL (≈ 6.7 µM); Antibacterial activity AG031 P. aer. APH(3′)-II [23]: 16-32; MIC [22]: 1 µg/mL (≈ 1.68 µM)
